Key:
Histamine H1 = target: T1, Histamine H1 (Homo sapiens, UniProt P35367); test: Safetyscreen: Histamine H1; format: binding; conditions: read-out: % Inh. Histamine H1
T1 construct: purchased Eurofins Cereps Panlabs

Cyclooxygenase COX-2 = target: T2, Cyclooxygenase COX-2 (Homo sapiens, UniProt P35354); test: Safetyscreen: COX-2; format: biochemical; conditions: read-out: % Inh. Cyclooxygenase COX-2
T2 construct: Eurofins Cerep Panlabs (contract panel)

[1] = target: T3, Cholinesterase, Acetyl, ACES (Homo sapiens, UniProt P22303); test: Safetyscreen: Acetyl cholinesterase; format: biochemical; conditions: read-out: % Inh. Cholinesterase, Acetyl, ACES
T3 construct: Eurofins Cerep Panlabs (contract panel)
T3 sequence (P22303 32-614): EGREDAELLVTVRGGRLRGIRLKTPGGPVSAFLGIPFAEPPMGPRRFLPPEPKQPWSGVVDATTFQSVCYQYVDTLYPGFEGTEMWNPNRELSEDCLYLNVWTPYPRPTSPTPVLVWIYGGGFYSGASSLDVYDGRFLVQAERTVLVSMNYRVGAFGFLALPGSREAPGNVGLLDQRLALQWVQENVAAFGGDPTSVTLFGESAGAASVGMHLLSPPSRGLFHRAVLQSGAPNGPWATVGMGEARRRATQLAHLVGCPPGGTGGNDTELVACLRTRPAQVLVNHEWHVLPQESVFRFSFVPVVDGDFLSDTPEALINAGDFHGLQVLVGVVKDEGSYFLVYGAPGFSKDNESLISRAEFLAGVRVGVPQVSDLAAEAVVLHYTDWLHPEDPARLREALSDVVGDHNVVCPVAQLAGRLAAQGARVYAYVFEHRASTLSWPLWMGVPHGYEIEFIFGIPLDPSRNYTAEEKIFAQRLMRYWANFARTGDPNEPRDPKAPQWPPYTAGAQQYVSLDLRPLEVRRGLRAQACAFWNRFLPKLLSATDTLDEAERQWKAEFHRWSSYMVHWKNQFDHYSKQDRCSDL

Adenosine A1 = target: T4, Adenosine A1 (Homo sapiens, UniProt P30542); test: Safetyscreen: Adenosine A1; format: binding; conditions: read-out: % Inh. Adenosine A1
T4 construct: Eurofins Cerep Panlabs (contract panel)
T4 sequence (P30542 whole entry): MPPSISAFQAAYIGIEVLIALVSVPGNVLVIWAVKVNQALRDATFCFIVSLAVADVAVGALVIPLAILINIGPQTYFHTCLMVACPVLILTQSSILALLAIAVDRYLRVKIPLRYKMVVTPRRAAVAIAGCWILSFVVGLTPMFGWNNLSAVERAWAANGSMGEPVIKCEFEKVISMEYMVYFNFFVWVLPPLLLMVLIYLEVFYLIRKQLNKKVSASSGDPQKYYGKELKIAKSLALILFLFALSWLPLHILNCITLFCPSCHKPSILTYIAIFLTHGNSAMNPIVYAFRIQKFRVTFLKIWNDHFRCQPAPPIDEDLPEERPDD

[2] = target: T5, Protein Tyrosine Kinase, Insulin Receptor (Homo sapiens, UniProt P06213); test: Safetyscreen: Insulin Receptor kinase; format: biochemical; conditions: read-out: % Inh. Protein Tyrosine Kinase, Insulin Receptor
T5 construct: Eurofins Cerep Panlabs (contract panel)
T5 sequence (P06213 28-1382): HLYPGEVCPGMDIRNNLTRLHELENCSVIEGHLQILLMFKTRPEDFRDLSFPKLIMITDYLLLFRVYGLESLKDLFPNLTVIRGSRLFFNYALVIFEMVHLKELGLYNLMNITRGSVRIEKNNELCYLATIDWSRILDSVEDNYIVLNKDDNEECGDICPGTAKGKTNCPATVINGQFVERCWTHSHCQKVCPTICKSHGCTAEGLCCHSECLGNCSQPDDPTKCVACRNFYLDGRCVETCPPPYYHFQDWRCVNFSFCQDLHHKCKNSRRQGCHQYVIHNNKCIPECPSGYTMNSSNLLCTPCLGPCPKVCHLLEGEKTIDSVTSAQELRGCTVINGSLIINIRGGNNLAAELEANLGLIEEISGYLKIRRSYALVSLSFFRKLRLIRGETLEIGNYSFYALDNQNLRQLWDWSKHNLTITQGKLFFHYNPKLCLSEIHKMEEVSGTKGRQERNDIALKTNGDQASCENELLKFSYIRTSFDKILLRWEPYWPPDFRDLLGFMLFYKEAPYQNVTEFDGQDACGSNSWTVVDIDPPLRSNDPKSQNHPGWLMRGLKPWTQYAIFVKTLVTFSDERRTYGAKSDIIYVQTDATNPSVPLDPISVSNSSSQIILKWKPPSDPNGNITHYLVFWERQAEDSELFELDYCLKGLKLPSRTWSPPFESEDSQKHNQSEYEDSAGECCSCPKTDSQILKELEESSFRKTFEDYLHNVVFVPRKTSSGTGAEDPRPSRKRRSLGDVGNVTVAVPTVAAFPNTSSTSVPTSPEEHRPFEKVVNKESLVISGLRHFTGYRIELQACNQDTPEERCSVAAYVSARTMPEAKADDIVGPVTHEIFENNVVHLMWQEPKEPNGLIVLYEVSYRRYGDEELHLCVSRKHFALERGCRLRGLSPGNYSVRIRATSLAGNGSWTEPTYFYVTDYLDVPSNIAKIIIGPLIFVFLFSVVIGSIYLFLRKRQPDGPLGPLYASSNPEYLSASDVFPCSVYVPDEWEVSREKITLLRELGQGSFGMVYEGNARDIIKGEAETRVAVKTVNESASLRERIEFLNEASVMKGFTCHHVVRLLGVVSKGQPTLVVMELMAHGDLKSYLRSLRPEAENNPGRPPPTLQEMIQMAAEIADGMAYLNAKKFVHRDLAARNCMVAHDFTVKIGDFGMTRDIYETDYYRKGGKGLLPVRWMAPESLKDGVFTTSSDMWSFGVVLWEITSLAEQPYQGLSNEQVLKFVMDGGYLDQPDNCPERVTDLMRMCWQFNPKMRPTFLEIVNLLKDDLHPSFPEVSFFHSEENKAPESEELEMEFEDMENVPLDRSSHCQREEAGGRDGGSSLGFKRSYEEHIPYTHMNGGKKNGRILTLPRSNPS

SNU398 human HCC cells = test: AldeRed (Aldefluor) assay in SNU398 cells; format: cell-based
Procedure: The AldeRed assay (EMD Millipore) was performed according to manufacturer's instructions to identify cells with ALDH activity. In brief, single-cell suspensions of Huh7, Huh1, SNU449, SNU398, HEP3B, PLC, Hepa 1-6, Hep55, and AL458A cultured cells or single-cell suspension generated from enzymatic digestion of tumors generated from transplantation of these cells in mice (as indicated in figure legends) were incubated with a fluorescent and non-toxic ALDH substrate (AldeRed 588-A); the fluorescent product accumulates in cells proportional to their ALDH activity. The amount of fluorescence produced is measured by flow cytometry. The ALDH inhibitor diethylaminobenzaldehyde (DEAB, provided with the AldeRed assay kit) was used as a negative control for background fluorescence assessment.
The Aldefluor assay has been used to identify and isolate cells with high ALDH activities. This assay is based on the principle that ALDH can convert the ALDH-substrate, Bodipy-aminoacetaldehyde (BAAA) into Bodipy-aminoacetate (BAA) which is retained inside the cells. BAAA is uncharged and can diffuse freely into intact viable cells, however BAA cannot cross the membrane due to its net negative charge, which makes remain in the cells and the assay buffer prevents efflux of the BAA from the cells. Therefore, the amount of BAA fluorescence in cells is proportional to ALDH activity and can be measured using a flow cytometer. A specific inhibitor of ALDH, diethylaminobenzaldehyde (DEAB), is used for background fluorescence control.

primary human monocytes = test: Human monocyte DC differentiation with SNU398 cells or conditioned media; format: cell-based
Description: FIGS. 22A-22E: RALDH1 inhibition blocks RA-mediated effects of HCC on monocyte differentiation. FIGS. 22A-22B: Circulating primary human monocytes from donors (FIG. 22A) or murine monocytes from bone marrow (FIG. 22B) were cocultured with SNU398 (Human HCC) cells or treated with SNU398-conditioned media (CM) in a DC differentiation system (GM-CSF and IL-4). Two-color histograms show the frequencies of DCs (CD11c^+CD1a^+ for human and CD11c^+MHCII^+ for mouse). The presence of SNU398 or its CM suppressed DC differentiation, which is reversed when SNU398 cells are treated with C86. Three or more independent experiments were performed with at least three replicates per experimental group. Unpaired t test, two-tailed. FIG. 22C: Huh7 (human HCC) cells were subcutaneously injected into flanks of NU/J mice. […] The frequencies of the host (murine) DCs (CD45^+F4/80^−CD11C^+MHCII-high) and macrophages (CD45^+F4/80^+) are quantified in a bar graph. […] Shown are the representative FCM plot (histogram) and DC quantification (bar graph). […]
Mouse monocytes were isolated from bone marrow as described herein and then cultured in RPMI 1640 (ThermoFisher Scientific, Cat #11875085) with 10% fetal bovine serum (GeminiBio, Cat #100-500). […] Cellular identity and function of differentiated monocytes was assessed by flow cytometry and quantitative PCR (qPCR).

Muscarinic M4 = target: T6, Muscarinic M4 (Homo sapiens, UniProt P08173); test: Safetyscreen: Muscarinic M4; format: binding; conditions: read-out: % Inh. Muscarinic M4
T6 construct: Eurofins Cereps Panlabs (contract panel)
T6 sequence (P08173 whole entry): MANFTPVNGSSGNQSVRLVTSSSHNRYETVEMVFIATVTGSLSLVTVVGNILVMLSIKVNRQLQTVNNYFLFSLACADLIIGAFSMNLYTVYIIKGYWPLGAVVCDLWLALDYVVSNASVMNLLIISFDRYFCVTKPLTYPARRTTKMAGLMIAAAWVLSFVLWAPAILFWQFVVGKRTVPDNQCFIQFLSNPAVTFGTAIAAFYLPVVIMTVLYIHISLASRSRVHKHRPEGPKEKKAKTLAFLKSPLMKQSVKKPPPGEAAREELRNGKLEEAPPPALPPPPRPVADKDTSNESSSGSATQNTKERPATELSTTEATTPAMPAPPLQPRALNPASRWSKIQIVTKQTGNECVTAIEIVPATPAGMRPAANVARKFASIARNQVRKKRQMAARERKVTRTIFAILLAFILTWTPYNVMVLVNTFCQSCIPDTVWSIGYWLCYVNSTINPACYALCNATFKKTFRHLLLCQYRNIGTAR

Cannabinoid CB2 = target: T7, Cannabinoid CB2 (Homo sapiens, UniProt P34972); test: Safetyscreen: CB2; format: binding; conditions: read-out: % Inh. Cannabinoid CB2
T7 construct: purchased Eurofins Cereps Panlabs
T7 sequence (P34972 whole entry): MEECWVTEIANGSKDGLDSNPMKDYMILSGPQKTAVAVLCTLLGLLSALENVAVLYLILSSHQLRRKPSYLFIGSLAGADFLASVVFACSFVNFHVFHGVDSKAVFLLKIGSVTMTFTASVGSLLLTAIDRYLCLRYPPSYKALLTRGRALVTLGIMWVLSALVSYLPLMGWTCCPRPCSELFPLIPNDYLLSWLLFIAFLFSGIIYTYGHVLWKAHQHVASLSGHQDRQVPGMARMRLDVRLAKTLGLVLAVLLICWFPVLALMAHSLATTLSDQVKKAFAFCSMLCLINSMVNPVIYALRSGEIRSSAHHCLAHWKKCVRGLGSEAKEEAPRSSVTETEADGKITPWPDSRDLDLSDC

T1 sequence (P35367 whole entry): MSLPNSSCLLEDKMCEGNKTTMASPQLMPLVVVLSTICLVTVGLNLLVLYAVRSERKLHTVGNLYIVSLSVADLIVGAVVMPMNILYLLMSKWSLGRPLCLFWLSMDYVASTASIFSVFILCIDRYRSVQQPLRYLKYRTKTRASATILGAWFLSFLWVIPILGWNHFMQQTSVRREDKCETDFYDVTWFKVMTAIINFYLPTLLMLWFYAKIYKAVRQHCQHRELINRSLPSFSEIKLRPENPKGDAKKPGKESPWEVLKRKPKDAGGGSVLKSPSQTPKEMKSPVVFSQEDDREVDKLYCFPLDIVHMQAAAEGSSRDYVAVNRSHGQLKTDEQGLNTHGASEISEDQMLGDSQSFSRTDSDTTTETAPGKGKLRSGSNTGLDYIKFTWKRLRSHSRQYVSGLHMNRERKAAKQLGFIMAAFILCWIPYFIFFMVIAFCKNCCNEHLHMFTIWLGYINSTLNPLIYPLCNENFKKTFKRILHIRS
T2 sequence (P35354 18-604): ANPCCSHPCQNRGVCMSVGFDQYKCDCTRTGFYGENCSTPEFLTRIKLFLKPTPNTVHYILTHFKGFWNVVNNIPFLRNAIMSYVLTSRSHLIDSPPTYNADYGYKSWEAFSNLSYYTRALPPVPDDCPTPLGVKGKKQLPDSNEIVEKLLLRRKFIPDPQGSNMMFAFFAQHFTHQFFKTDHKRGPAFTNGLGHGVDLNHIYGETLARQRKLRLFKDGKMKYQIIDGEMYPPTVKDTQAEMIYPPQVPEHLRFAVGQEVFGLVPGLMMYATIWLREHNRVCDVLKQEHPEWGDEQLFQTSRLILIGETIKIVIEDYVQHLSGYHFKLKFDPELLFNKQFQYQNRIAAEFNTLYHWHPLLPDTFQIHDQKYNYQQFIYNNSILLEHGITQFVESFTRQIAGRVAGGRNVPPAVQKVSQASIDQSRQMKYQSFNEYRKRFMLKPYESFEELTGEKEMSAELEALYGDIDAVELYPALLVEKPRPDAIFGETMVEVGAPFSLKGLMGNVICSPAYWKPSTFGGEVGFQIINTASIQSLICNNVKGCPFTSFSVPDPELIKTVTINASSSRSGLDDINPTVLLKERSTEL

Structure (SMILES): CS(=O)(=O)N1CCN(C(=O)c2cnc3ccc(F)cc3c2N2CCC(C#N)(c3ccccc3)CC2)CC1 [Compound C-86, 1-(6-fluoro-3-(4-(methylsulfonyl)piperazine-1-carbonyl)quinolin-4-yl)-4-phenylpiperidine-4-carbonitrile]
- inhibition at 10 µM (Histamine H1): 13%
- inhibition at 10 µM (Cyclooxygenase COX-2): 0%
- inhibition at 10 µM [1]: 3%
- inhibition at 10 µM (Adenosine A1): 4%
- inhibition at 10 µM [2]: 0%
- RALDH activity, Aldered assay, in HCC cells (SNU398 human HCC cells; FIGS. 7-8): significantly reduced RALDH activity
- RALDH activity as detected by Aldered (Aldefluor) assay (SNU398 human HCC cells; SNU398 cells in vitro, 100 nM, DMSO control): abrogated
- potential of monocytes to differentiate into DCs (primary human monocytes; direct treatment of monocytes in vitro): did not alter
- suppression of DC differentiation by HCC cells or CM (primary human monocytes; human monocytes, HCC cells pre-treated): reversed
- inhibition at 10 µM (Muscarinic M4): 13%
- inhibition at 10 µM (Cannabinoid CB2): 21%
